Reference: patent US12195427B2, “MASP-2 inhibitors and methods of use” (priority 2018, dated 2025)

Target: MASP-2 CCP2-SP (Homo sapiens (Human), UniProt O00187)
Experiment: MASP-2 co-crystallization, X-ray crystallography and structure analysis (H-bonds, van der Waals contacts);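 as to Ligand-pharmacophore element distance, pharmacophore element C2: distance from averaged pharmacophore element to bound ligand; missing value means element absent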;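 as to Ligand-pharmacophore element distance, pharmacophore element C3: distance from averaged pharmacophore element to bound ligand; missing value means element absent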;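 as to Ligand-pharmacophore element distance, pharmacophore element C4: distance from averaged pharmacophore element to bound ligand; missing value means element absent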;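 as to Ligand-pharmacophore element distance, pharmacophore element C5: distance from averaged pharmacophore element to bound ligand; missing value means element absent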
Design: van der Waals contact distance, MASP-2 HIS 483 atom CD2 / van der Waals contact distance, MASP-2 HIS 483 atom NE2 / van der Waals contact distance, SER 654 C to compound atom / van der Waals contact distance, SER 654 O to compound atom / van der Waals contact distance, TRP 655 C to compound atom / van der Waals contact distance, MASP-2 GLY 528 atom CA / van der Waals contact distance TRP 655 atom CZ3 / van der Waals contact distance TRP 655 atom N / van der Waals contact distance TRP 655 atom CE3 / van der Waals contact distance GLY 656 atom C / van der Waals contact distance GLY 656 atom CA / van der Waals contact distance GLY 656 atom O / van der Waals contact distance, MASP-2 TYR 607 atom CD1 / van der Waals contact distance, MASP-2 PRO 606 atom O / d(C3,CA1) / d(CA1,N1)2 / d(H4,O1) / d(H4,O2) / d(O1,O2) / d(CA1,O2) / d(CA6,O1) / d(CA6,O2) / d(CA1,C5) / d(O2,H3) / d(N2,C2) / d(CA5,N2) / d(N2,C4) / d(N2,C6) / d(N2,CA3) / d(N2,O3) / d(O4,H2): unit not given beside the values
Conditions: for Ligand-pharmacophore element distance, pharmacophore element C2 / Ligand-pharmacophore element distance, pharmacophore element C3 / Ligand-pharmacophore element distance, pharmacophore element C4 / Ligand-pharmacophore element distance, pharmacophore element C5 / Ligand-pharmacophore element distance, pharmacophore element C6 / Ligand-pharmacophore element distance, pharmacophore element C7 / Ligand-pharmacophore element distance, pharmacophore element CA1 / Ligand-pharmacophore element distance, pharmacophore element CA2 / Ligand-pharmacophore element distance, pharmacophore element CA3 / Ligand-pharmacophore element distance, pharmacophore element CA4 / Ligand-pharmacophore element distance, pharmacophore element CA5 / Ligand-pharmacophore element distance, pharmacophore element CA6: Table A4-1; for a(O1, O2, H3) / a(O1, O2, N2) / a(O2, N2, C2) / a(O2, N2, CA2): Table A6-2 pharmacophore angle
Summary of the method: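 Inhibitor complexes were obtained by soaking crystals of E. coli-expressed human MASP-2 CCP2-SP constructs, then flash-cooling in liquid nitrogen. Structures solved by molecular replacement (1Q3X search model) from synchrotron diffraction; where several poses existed, only one was analyzed, and nonbonded contacts listed can include H-bonds.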

[1] = Table A5-1 pharmacophore: distance between elements, S2/S1 region
[2] = Table A5-2 pharmacophore distance, S3/S4 region
[3] = Table A7-1, between pharmacophore elements of the bound compound
[4] = Table A7-2, between pharmacophore elements of the bound compound
[5] = Table A8-6, nearest protein atom in cell to the left

Chain of MASP-2 CCP2-SP (O00187 445-686): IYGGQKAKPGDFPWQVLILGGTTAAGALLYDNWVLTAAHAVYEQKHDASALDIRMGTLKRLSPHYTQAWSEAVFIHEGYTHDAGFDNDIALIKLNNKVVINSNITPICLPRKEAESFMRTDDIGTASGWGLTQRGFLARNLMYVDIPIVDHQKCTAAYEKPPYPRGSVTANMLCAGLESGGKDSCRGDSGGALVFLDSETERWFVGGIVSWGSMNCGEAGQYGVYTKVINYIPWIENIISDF
Chain of MASP-2 CCP2-SP (O00187 364-432 partner): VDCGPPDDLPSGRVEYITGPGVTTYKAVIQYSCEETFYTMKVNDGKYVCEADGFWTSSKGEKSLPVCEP

Structure (SMILES) | Ligand-pharmacophore element distance, pharmacophore element C2 | Ligand-pharmacophore element distance, pharmacophore element C3 | Ligand-pharmacophore element distance, pharmacophore element C4 | Ligand-pharmacophore element distance, pharmacophore element C5 | Ligand-pharmacophore element distance, pharmacophore element C6 | Ligand-pharmacophore element distance, pharmacophore element C7 | Ligand-pharmacophore element distance, pharmacophore element CA1 | Ligand-pharmacophore element distance, pharmacophore element CA2 | Ligand-pharmacophore element distance, pharmacophore element CA3 | Ligand-pharmacophore element distance, pharmacophore element CA4 | Ligand-pharmacophore element distance, pharmacophore element CA5 | Ligand-pharmacophore element distance, pharmacophore element CA6 | d(CA1,O1) [1] | d(CA1,O2) [1] | d(H4,O1) [1] | d(H4,O2) [1] | d(O1,O2) [1] | d(O2,H3) [2] | d(O2,N2) [2] | a(CA1, O1, O2) (Table A6-1 pharmacophore angle) | other results
C[C@H](NC(=O)[C@H](N)C1Cc2ccccc2C1)C(=O)NCc1ccc2c(N)nccc2c1.Cl.Cl [1088_A] | 1.75 | 0 | 0 | 0 | 0 | 0 | 0.4 | 0 | 0 | 0 | 0.39 | 0 | 5.33 | 4.61 | 6.97 | 5.89 | 3.49 | 3.72 | 2.73 | 99.08 | d(CA5,N2) [2]: 5.30; d(N2,C2) [2]: 3.41; a(O1, O2, H4) (Table A6-1 pharmacophore angle): 149.95; a(O1, O2, H3): 144.04; a(O1, O2, N2): 141.09; a(O2, N2, C2): 141.58; Pharmacophore torsion angle a(H4, O1, O2, H3) [3]: 49.33; Pharmacophore torsion angle a(H4, O1, O2, N2) [3]: 120.82; Pharmacophore torsion angle a(O1, H4, O2, CA1) [3]: −54.60; Pharmacophore torsion angle a(O1, O2, N2, C2) [3]: 103.40; Pharmacophore torsion angle a(O1, O2, N2, CA5) [4]: 116.27; Pharmacophore protein distance to MET_658 (first MET_658 column) (Table A8-6, 6th residue column, nearest protein atom in cell to the left): 3.04; Pharmacophore protein distance to MET_658 (second MET_658 column) (Table A8-6, 9th residue column, nearest protein atom in cell to the left): 3.12; Pharmacophore protein distance to GLY_528 [5]: 3.66; Pharmacophore protein distance to PHE_529 [5]: 2.75; Pharmacophore protein distance to PRO_608 [5]: 3.74; Pharmacophore protein distance to SER_611 [5]: 2.71; Pharmacophore protein distance to TRP_655 (Table A8-6, pharmacophore elements C6, CA3, O3, H1, nearest protein atom in cell to the left): 3.75
C[C@H](NC(=O)[C@H]1C[C@@H](c2ccccc2)CCN1)C(=O)NCc1cc(Cl)ccc1O.Cl [1078_11] | 0.6 | 0 | 0 | 0.41 | 0 | 0 | 1.64 | 0.64 | 0 | 0 | 0 | 0 | 4.69 | 4.58 | 2.26 | 2.51 | 3.42 | 3.05 | 2.97 | 109.94 | d(CA1,C5) [1]: 3.12; d(CA1,O4) [1]: 2.75; d(O4,H2) [1]: 0.97; d(N2,C2) [2]: 1.47; d(N2,CA2) [2]: 5.75; a(C5, CA1, O1) (Table A6-1 pharmacophore angle): 161.80; a(CA1, O4, H2) (Table A6-1 pharmacophore angle): 130.34; a(O1, CA1, O4) (Table A6-1 pharmacophore angle): 59.87; a(O1, O2, H4) (Table A6-1 pharmacophore angle): 88.73; a(O1, O2, H3): 137.81; a(O1, O2, N2): 142.32; a(O2, N2, C2): 120.15; a(O2, N2, CA2): 152.82; Pharmacophore torsion angle a(C5, CA1, O1, H4) [3]: 37.14; Pharmacophore torsion angle a(H4, O1, O2, H3) [3]: −120.02; Pharmacophore torsion angle a(H4, O1, O2, N2) [3]: −112.40; Pharmacophore torsion angle a(O1, H4, O2, CA1) [3]: −55.96; Pharmacophore torsion angle a(O1, O2, N2, C2) [3]: 136.21; Pharmacophore torsion angle a(O1, O2, N2, CA2) [4]: 138.54
C[C@H](NC(=O)[C@H]1C[C@H](Cc2ccccc2)CN1)C(=O)NCc1ccc(C(=N)N)cc1.Cl.Cl [1306_2] | 0 | 0 | 0 | 0 | 0 | 0 | 0.74 | 1.14 | 0 | 0 | 0 | 0 | 3.99 | 4.29 | 6.07 | 5.71 | 2.68 | 4.46 | 2.71 | 114.80 | d(CA1,N1) [1]: 3.60; d(N2,CA2) [2]: 6.15; a(O1, O2, H4) (Table A6-1 pharmacophore angle): 153.92; A(N1, CA1, O1) a) (Table A6-1 pharmacophore angle, all compounds with protonatable center N1 except Methyl-amino-pyridine): 161.00; a(O1, O2, H3): 151.24; a(O1, O2, N2): 153.80; a(O2, N2, CA2): 158.08; Pharmacophore torsion angle a(H4, O1, O2, H3) [3]: 40.51; Pharmacophore torsion angle a(H4, O1, O2, N2) [3]: 134.08; Pharmacophore torsion angle a(N1, CA1, O2, H4) [3]: −77.87; Pharmacophore torsion angle a(O1, H4, O2, CA1) [3]: −12.97; Pharmacophore torsion angle a(O1, O2, N2, CA2) [4]: 124.98
C[C@H](NC(=O)[C@H]1C[C@@H](c2ccccc2)CCN1)C(=O)NCc1cc(Cl)ccc1O.Cl [1078_13] | 0.58 | 0 | 0 | 0.47 | 0 | 0 | 1.62 | 0.73 | 0 | 0 | 0 | 0 | 4.37 | 4.66 | 3.14 | 3.66 | 3.25 | 2.11 | 2.79 | 115.77 | d(CA1,C5) [1]: 3.12; d(CA1,O4) [1]: 2.76; d(O4,H2) [1]: 0.98; d(N2,C2) [2]: 1.47; d(N2,CA2) [2]: 5.61; a(C5, CA1, O1) (Table A6-1 pharmacophore angle): 162.99; a(CA1, O4, H2) (Table A6-1 pharmacophore angle): 129.33; a(O1, CA1, O4) (Table A6-1 pharmacophore angle): 65.06; a(O1, O2, H4) (Table A6-1 pharmacophore angle): 123.59; a(O1, O2, H3): 135.66; a(O1, O2, N2): 146.15; a(O2, N2, C2): 127.57; a(O2, N2, CA2): 154.39; Pharmacophore torsion angle a(C5, CA1, O1, H4) [3]: −7.66; Pharmacophore torsion angle a(H4, O1, O2, H3) [3]: −157.30; Pharmacophore torsion angle a(H4, O1, O2, N2) [3]: −162.99; Pharmacophore torsion angle a(O1, H4, O2, CA1) [3]: −78.80; Pharmacophore torsion angle a(O1, O2, N2, C2) [3]: 118.91; Pharmacophore torsion angle a(O1, O2, N2, CA2) [4]: 137.37
